Experimental data reported in US9738634B2, “Heterocyclic amide compound and herbicide” (SYNGENTA PARTICIPATIONS AG, priority 2013, dated 2017).

What was measured:
Assay type in all cases: in vivo
oval-leafed pondweed [1] = assay: Test Example 1: weedkilling efficacy, preemergent weed treatment in the submerged state; C: oval-leafed pondweed
Excerpt: (§1) Weedkilling efficacy test on preemergent weed treatment in the submerged state
(§2) Alluvial soil was introduced into 1/10,000 Are Wagner pots, and 4 cm depth submerged conditions were created by addition of water and mixing. Seeds of barnyard grass, bulrush and oval-leafed pondweed were mixed and sown into the aforesaid cups, then 2.5 leaf stage rice seedlings were transplanted. On the sowing day, emulsions of compounds of the present invention prepared according to compounding example 2 were diluted with water to give the specified dosages and applied onto the water surface. The plants were grown after placing the cups in a greenhouse at 25 to 30° C. 3 weeks after the pesticide treatment the effect on each type of plant was investigated on the basis of the following assessment criteria.
(§3) A: barnyard grass, B: bulrush, C: oval-leafed pondweed, D: crabgrass, E: green foxtail, F: barnyard grass, G: wild oat, H: black-grass, I: Italian ryegrass, J: common wind-grass, K: Indian mallow, L: redroot pigweed, M: fig-leafed goosefoot, N: chickweed, O: catchweed, p: birds-eye speedwell, a: transplanted rice, b: directly sown rice, c: corn, d: soybean, e: wheat, f: beet, g: rapeseed
(§4) Further, pesticide dosage (g/ha) indicates the concentration regulated such that treatment was with only the stated number of grams (g), when calculated per hectare (ha).

bulrush [2] = assay: Test Example 1: weedkilling efficacy, preemergent weed treatment in the submerged state; B: bulrush
Excerpt: as §1, §2, §3, §4

bulrush [3] = assay: Test Example 2: weedkilling efficacy, growth period weed treatment in the submerged state; B: bulrush
Description: (§5) Weedkilling efficacy test on growth period weed treatment in the submerged state
as §2, with “and the plants were grown by placing in a greenhouse at 25 to 30° C. When the barnyard grass, bulrush and oval-leafed pondweed had reached the 1-2” for “then 2.5”, “stage,” for “stage rice seedlings were transplanted. On the sowing day,”, “surface.” for “surface. The plants were grown after placing the cups in a greenhouse at 25 to 30° C.”, “the” for “the following”, “criteria of test example 1.” for “criteria.”
as §3, §4

transplanted rice = assay: Test Example 1: preemergent weed treatment in the submerged state, effect on crop; a: transplanted rice
Excerpt: as §1, §2, §3, §4

oval-leafed pondweed [4] = assay: Test Example 2: weedkilling efficacy, growth period weed treatment in the submerged state; C: oval-leafed pondweed
Description: as §5
as §2, with “and the plants were grown by placing in a greenhouse at 25 to 30° C. When the barnyard grass, bulrush and oval-leafed pondweed had reached the 1-2” for “then 2.5”, “stage,” for “stage rice seedlings were transplanted. On the sowing day,”, “surface.” for “surface. The plants were grown after placing the cups in a greenhouse at 25 to 30° C.”, “the” for “the following”, “criteria of test example 1.” for “criteria.”
as §3, §4

barnyard grass [5] = assay: Test Example 1: weedkilling efficacy, preemergent weed treatment in the submerged state; A: barnyard grass
Excerpt: as §1, §2, §3, §4

barnyard grass [6] = assay: Test Example 2: weedkilling efficacy, growth period weed treatment in the submerged state; A: barnyard grass
Description: as §5
as §2, with “and the plants were grown by placing in a greenhouse at 25 to 30° C. When the barnyard grass, bulrush and oval-leafed pondweed had reached the 1-2” for “then 2.5”, “stage,” for “stage rice seedlings were transplanted. On the sowing day,”, “surface.” for “surface. The plants were grown after placing the cups in a greenhouse at 25 to 30° C.”, “the” for “the following”, “criteria of test example 1.” for “criteria.”
as §3, §4

Row | Structure (SMILES) | C: oval-leafed pondweed, weed kill grade (oval-leafed pondweed [1]; treatment dosage 252 g/ha) | B: bulrush, weed kill grade (bulrush [2]; treatment dosage 252 g/ha) | B (bulrush) weedkilling efficacy grade (bulrush [3]; treatment dosage 252 g/ha) | a: transplanted rice, effect on crop grade (transplanted rice; treatment dosage 252 g/ha) | C (oval-leafed pondweed) weedkilling efficacy grade (oval-leafed pondweed [4]; treatment dosage 252 g/ha) | A: barnyard grass, weed kill grade (barnyard grass [5]; treatment dosage 252 g/ha) | A (barnyard grass) weedkilling efficacy grade (barnyard grass [6]; treatment dosage 252 g/ha) | other results
1 | CC(C)(C(=O)Nc1cc(Cl)cc(Cl)n1)N1COCN(c2ccccc2)C1=S [A-2-18] | – | – | – | – | – | – | – | C: oval-leafed pondweed, weed kill grade (oval-leafed pondweed [1]; treatment dosage 320 g/ha): 5 (weed kill ratio 90% or more, (practically complete withering)); B: bulrush, weed kill grade (bulrush [2]; treatment dosage 320 g/ha): 5 (weed kill ratio 90% or more, (practically complete withering)); B (bulrush) weedkilling efficacy grade (bulrush [3]; treatment dosage 320 g/ha): 5 (weed kill ratio 90% or more, (practically complete withering)); a: transplanted rice, effect on crop grade (transplanted rice; treatment dosage 320 g/ha): 0 (weed kill ratio 5% or less (practically no effect)); C (oval-leafed pondweed) weedkilling efficacy grade (oval-leafed pondweed [4]; treatment dosage 320 g/ha): 5 (weed kill ratio 90% or more, (practically complete withering)); A: barnyard grass, weed kill grade (barnyard grass [5]; treatment dosage 320 g/ha): 5 (weed kill ratio 90% or more, (practically complete withering)); A (barnyard grass) weedkilling efficacy grade (barnyard grass [6]; treatment dosage 320 g/ha): 5 (weed kill ratio 90% or more, (practically complete withering))
2 | CC(C)(C(=O)Nc1cccc(C(F)F)n1)N1COCN(c2ccccc2)C1=O [A-2-41] | – | – | – | – | – | – | – | C: oval-leafed pondweed, weed kill grade (oval-leafed pondweed [1]; treatment dosage 315 g/ha): 5 (weed kill ratio 90% or more, (practically complete withering)); B: bulrush, weed kill grade (bulrush [2]; treatment dosage 315 g/ha): 5 (weed kill ratio 90% or more, (practically complete withering)); B (bulrush) weedkilling efficacy grade (bulrush [3]; treatment dosage 315 g/ha): 5 (weed kill ratio 90% or more, (practically complete withering)); a: transplanted rice, effect on crop grade (transplanted rice; treatment dosage 315 g/ha): 0 (weed kill ratio 5% or less (practically no effect)); C (oval-leafed pondweed) weedkilling efficacy grade (oval-leafed pondweed [4]; treatment dosage 315 g/ha): 5 (weed kill ratio 90% or more, (practically complete withering)); A: barnyard grass, weed kill grade (barnyard grass [5]; treatment dosage 315 g/ha): 5 (weed kill ratio 90% or more, (practically complete withering)); A (barnyard grass) weedkilling efficacy grade (barnyard grass [6]; treatment dosage 315 g/ha): 5 (weed kill ratio 90% or more, (practically complete withering))
3 | CC(C)(C(=O)Nc1cc(C(F)(F)F)ccn1)N1COCN(c2ccccc2)C1=O [A-2-42] | 5 (weed kill ratio 90% or more, (practically complete withering)) | 5 (weed kill ratio 90% or more, (practically complete withering)) | 5 (weed kill ratio 90% or more, (practically complete withering)) | 4 (weed kill ratio 70% or more, less than 90%) | 5 (weed kill ratio 90% or more, (practically complete withering)) | 5 (weed kill ratio 90% or more, (practically complete withering)) | 5 (weed kill ratio 90% or more, (practically complete withering)) | –
4 | CC(C)(C(=O)Nc1ccc(C(F)(F)F)cn1)N1COCN(c2ccccc2)C1=O [A-2-43] | – | – | – | – | – | – | – | C: oval-leafed pondweed, weed kill grade (oval-leafed pondweed [1]; treatment dosage 320 g/ha): 5 (weed kill ratio 90% or more, (practically complete withering)); B: bulrush, weed kill grade (bulrush [2]; treatment dosage 320 g/ha): 5 (weed kill ratio 90% or more, (practically complete withering)); B (bulrush) weedkilling efficacy grade (bulrush [3]; treatment dosage 320 g/ha): 4 (weed kill ratio 70% or more, less than 90%); a: transplanted rice, effect on crop grade (transplanted rice; treatment dosage 320 g/ha): 0 (weed kill ratio 5% or less (practically no effect)); C (oval-leafed pondweed) weedkilling efficacy grade (oval-leafed pondweed [4]; treatment dosage 320 g/ha): 2 (weed kill ratio 20% or more, less than 40%); A: barnyard grass, weed kill grade (barnyard grass [5]; treatment dosage 320 g/ha): 3 (weed kill ratio 40% or more, less than 70%); A (barnyard grass) weedkilling efficacy grade (barnyard grass [6]; treatment dosage 320 g/ha): 2 (weed kill ratio 20% or more, less than 40%)
5 | CC(C)(C(=O)Nc1cccc(C(F)(F)F)n1)N1COCN(c2ccccc2)C1=O [A-2-44] | 4 (weed kill ratio 70% or more, less than 90%) | 5 (weed kill ratio 90% or more, (practically complete withering)) | 5 (weed kill ratio 90% or more, (practically complete withering)) | 0 (weed kill ratio 5% or less (practically no effect)) | 1 (weed kill ratio 5% or more, less than 20%) | 5 (weed kill ratio 90% or more, (practically complete withering)) | 3 (weed kill ratio 40% or more, less than 70%) | –
6 | CC(C)(C(=O)Nc1cc(C2CC2)ccn1)N1COCN(c2ccccc2)C1=O [A-2-45] | 5 (weed kill ratio 90% or more, (practically complete withering)) | 5 (weed kill ratio 90% or more, (practically complete withering)) | 4 (weed kill ratio 70% or more, less than 90%) | 0 (weed kill ratio 5% or less (practically no effect)) | 3 (weed kill ratio 40% or more, less than 70%) | 5 (weed kill ratio 90% or more, (practically complete withering)) | 4 (weed kill ratio 70% or more, less than 90%) | –
7 | CC(C)(C(=O)Nc1cccc(C2CC2)n1)N1COCN(c2ccccc2)C1=O [A-2-46] | 3 (weed kill ratio 40% or more, less than 70%) | 4 (weed kill ratio 70% or more, less than 90%) | 2 (weed kill ratio 20% or more, less than 40%) | 1 (weed kill ratio 5% or more, less than 20%) | 0 (weed kill ratio 5% or less (practically no effect)) | 5 (weed kill ratio 90% or more, (practically complete withering)) | 4 (weed kill ratio 70% or more, less than 90%) | –
8 | CC(C)(C(=O)Nc1cc(C#N)ccn1)N1COCN(c2ccccc2)C1=O [A-2-48] | 5 (weed kill ratio 90% or more, (practically complete withering)) | 5 (weed kill ratio 90% or more, (practically complete withering)) | 5 (weed kill ratio 90% or more, (practically complete withering)) | 0 (weed kill ratio 5% or less (practically no effect)) | 5 (weed kill ratio 90% or more, (practically complete withering)) | 5 (weed kill ratio 90% or more, (practically complete withering)) | 4 (weed kill ratio 70% or more, less than 90%) | –
9 | CC(C)(C(=O)Nc1cc(-c2ccccc2)ccn1)N1COCN(c2ccccc2)C1=O [A-2-49] | 5 (weed kill ratio 90% or more, (practically complete withering)) | 5 (weed kill ratio 90% or more, (practically complete withering)) | 4 (weed kill ratio 70% or more, less than 90%) | 1 (weed kill ratio 5% or more, less than 20%) | 4 (weed kill ratio 70% or more, less than 90%) | 5 (weed kill ratio 90% or more, (practically complete withering)) | 4 (weed kill ratio 70% or more, less than 90%) | –
10 | CC(C)(C(=O)Nc1cccc(-c2ccccc2)n1)N1COCN(c2ccccc2)C1=O [A-2-50] | 5 (weed kill ratio 90% or more, (practically complete withering)) | 5 (weed kill ratio 90% or more, (practically complete withering)) | 4 (weed kill ratio 70% or more, less than 90%) | 0 (weed kill ratio 5% or less (practically no effect)) | 3 (weed kill ratio 40% or more, less than 70%) | 5 (weed kill ratio 90% or more, (practically complete withering)) | 4 (weed kill ratio 70% or more, less than 90%) | –
11 | COc1cccc(NC(=O)C(C)(C)N2COCN(c3ccccc3)C2=O)n1 [A-2-52] | 5 (weed kill ratio 90% or more, (practically complete withering)) | 5 (weed kill ratio 90% or more, (practically complete withering)) | 5 (weed kill ratio 90% or more, (practically complete withering)) | 1 (weed kill ratio 5% or more, less than 20%) | 2 (weed kill ratio 20% or more, less than 40%) | 5 (weed kill ratio 90% or more, (practically complete withering)) | 4 (weed kill ratio 70% or more, less than 90%) | –
12 | CC(C)(C(=O)Nc1cc(OC(F)F)ccn1)N1COCN(c2ccccc2)C1=O [A-2-53] | – | – | – | – | – | – | – | C: oval-leafed pondweed, weed kill grade (oval-leafed pondweed [1]; treatment dosage 320 g/ha): 5 (weed kill ratio 90% or more, (practically complete withering)); B: bulrush, weed kill grade (bulrush [2]; treatment dosage 320 g/ha): 5 (weed kill ratio 90% or more, (practically complete withering)); B (bulrush) weedkilling efficacy grade (bulrush [3]; treatment dosage 320 g/ha): 5 (weed kill ratio 90% or more, (practically complete withering)); a: transplanted rice, effect on crop grade (transplanted rice; treatment dosage 320 g/ha): 1 (weed kill ratio 5% or more, less than 20%); C (oval-leafed pondweed) weedkilling efficacy grade (oval-leafed pondweed [4]; treatment dosage 320 g/ha): 5 (weed kill ratio 90% or more, (practically complete withering)); A: barnyard grass, weed kill grade (barnyard grass [5]; treatment dosage 320 g/ha): 5 (weed kill ratio 90% or more, (practically complete withering)); A (barnyard grass) weedkilling efficacy grade (barnyard grass [6]; treatment dosage 320 g/ha): 5 (weed kill ratio 90% or more, (practically complete withering))
